# Literature values, collected in patent publication US20140322356A1, “CTC BIOMARKER ASSAY TO COMBAT BREAST CANCER BRAIN METASTASIS” (Baylor College of Medicine, priority 2011, published 2014).
# Experiments:
# [1] = system: MDA-MB-435 carcinoma cells; conditions: MDA-MB-435 cells selected for metastatic growth in the brain
# [2] = target: T1, heparanase (HPSE) (Homo sapiens, UniProt Q9Y251); conditions: statement from literature, no value given
# T1 sequence (Q9Y251 36-543): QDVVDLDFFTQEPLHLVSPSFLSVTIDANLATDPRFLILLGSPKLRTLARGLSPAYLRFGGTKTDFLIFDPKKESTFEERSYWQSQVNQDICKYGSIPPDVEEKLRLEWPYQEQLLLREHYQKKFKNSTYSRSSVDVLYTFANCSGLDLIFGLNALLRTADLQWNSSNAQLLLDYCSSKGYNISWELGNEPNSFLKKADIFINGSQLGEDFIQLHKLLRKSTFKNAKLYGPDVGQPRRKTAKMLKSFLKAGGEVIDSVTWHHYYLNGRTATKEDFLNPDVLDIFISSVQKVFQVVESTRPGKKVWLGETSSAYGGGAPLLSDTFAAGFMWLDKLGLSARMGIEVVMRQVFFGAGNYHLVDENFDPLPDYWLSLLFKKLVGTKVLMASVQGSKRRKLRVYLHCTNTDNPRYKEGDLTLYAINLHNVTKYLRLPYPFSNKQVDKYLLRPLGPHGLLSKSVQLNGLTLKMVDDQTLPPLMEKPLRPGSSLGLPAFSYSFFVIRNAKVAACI
inhibition of heparanase [2],Molecule,tumor cell migration and invasion in vitro [1]
,C[C@H](NC(=O)Cc1cc(F)cc(F)c1)C(=O)N[C@H](C(=O)OC(C)(C)C)c1ccccc1 [DAPT],inhibited
inhibitor of HPSE,Heparin,
